In US6660300B1, “Method of use of a biphasic controlled release delivery system for high solubility pharmaceuticals and method” (Bristol-Myers Squibb Co., priority 1998, dated 2003):
Structures can show the parent of a compound that is named as a salt.

How the values were obtained:
[1] = compaction susceptibility
[2] = hygroscopicity at 95% relative humidity/25° C.
[3] = cited from earlier work

SMILES	compaction susceptibility [1]	hygroscopicity, moisture uptake ([2]; at 6 hours)	hygroscopicity, moisture uptake ([2]; at 30 minutes)	area under the plasma concentration-time profile, jejunum compared with ileum ([3]; drug perfused into jejunum versus ileum) [fold]	drug in plasma ([3]; drug perfused into the colon)
CN(C)C(=N)N=C(N)N [metformin (2:1) fumarate, Metformin (2:1) Fumarate]	low	less than 7%			
CN(C)C(=N)NC(=N)N [metformin (2:1) succinate, Metformin (2:1) Succinate]	low		less than 1%		
CN(C)C(=N)N=C(N)N [metformin]				2.5	not detectable
